# Experimental data published in patent US9809623B2, “α4β7 peptide monomer and dimer antagonists” (Protagonist Therapeutics, Inc., priority 2014, dated 2017).
# Numbered stars: 1 amine (or outer) side, 2 acyl side, 3 side chain; on linkers, the order of the positions; unused ones are H or OH. Bridge positions count the residues as written; N and C are the ends. Square brackets hold non-standard residues; d marks the D form. Peptide text beside a SMILES is read from it. I, II: the chains in the order shown. Phe(4-tBu) = CC(C)(C)c1ccc(C[C@H](N)C(=O)O)cc1; 2Nal = N[C@@H](Cc1ccc2ccccc2c1)C(=O)O; Diglycolyl = O=C(COCC(=O)[*:2])[*:1]; NMeR = CN[C@@H](CCCNC(=N)N)C(=O)O; Tic = O=C(O)[C@@H]1Cc2ccccc2CN1; β3hE = N[C@@H](CCC(=O)O)CC(=O)O; Pen = CC(C)(S)[C@H](N)C(=O)O
# Columns and labels:
# [1] = target: T1, α4β7 (Homo sapiens, UniProt P13612+P26010); assay: PBMC Memory T Cell Adhesion Assay, adhesion to MAdCAM-1; assay type: cell-based; settings: Table 3-B; range classes; read-out: PBMC IC50
# T1 sequence (P13612 34-1032): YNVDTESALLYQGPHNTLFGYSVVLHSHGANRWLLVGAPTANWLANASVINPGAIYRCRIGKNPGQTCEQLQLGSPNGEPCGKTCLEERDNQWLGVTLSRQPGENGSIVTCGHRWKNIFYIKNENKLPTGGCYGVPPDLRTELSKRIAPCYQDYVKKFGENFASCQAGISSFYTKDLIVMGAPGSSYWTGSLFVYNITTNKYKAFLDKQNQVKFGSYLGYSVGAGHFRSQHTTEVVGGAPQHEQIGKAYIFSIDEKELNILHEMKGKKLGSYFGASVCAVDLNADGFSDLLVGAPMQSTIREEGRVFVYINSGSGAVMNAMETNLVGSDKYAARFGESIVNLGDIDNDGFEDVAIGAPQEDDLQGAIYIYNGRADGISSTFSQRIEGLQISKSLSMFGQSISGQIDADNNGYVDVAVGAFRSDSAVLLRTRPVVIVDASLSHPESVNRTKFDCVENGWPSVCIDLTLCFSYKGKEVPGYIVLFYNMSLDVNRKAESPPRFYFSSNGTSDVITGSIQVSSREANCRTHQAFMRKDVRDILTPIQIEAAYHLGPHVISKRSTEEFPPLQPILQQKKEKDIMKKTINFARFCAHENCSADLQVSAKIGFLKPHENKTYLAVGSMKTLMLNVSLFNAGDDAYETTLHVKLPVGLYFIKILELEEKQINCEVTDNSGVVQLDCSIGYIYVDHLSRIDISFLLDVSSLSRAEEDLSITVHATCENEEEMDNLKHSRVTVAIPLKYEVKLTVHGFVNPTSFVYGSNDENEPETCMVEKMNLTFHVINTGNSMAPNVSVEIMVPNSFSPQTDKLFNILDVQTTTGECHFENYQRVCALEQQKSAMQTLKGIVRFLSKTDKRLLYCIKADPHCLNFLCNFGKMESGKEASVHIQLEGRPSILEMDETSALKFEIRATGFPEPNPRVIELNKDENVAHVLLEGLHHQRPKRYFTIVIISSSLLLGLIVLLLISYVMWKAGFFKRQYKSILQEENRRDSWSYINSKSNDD
# T1 sequence (P26010 20-798): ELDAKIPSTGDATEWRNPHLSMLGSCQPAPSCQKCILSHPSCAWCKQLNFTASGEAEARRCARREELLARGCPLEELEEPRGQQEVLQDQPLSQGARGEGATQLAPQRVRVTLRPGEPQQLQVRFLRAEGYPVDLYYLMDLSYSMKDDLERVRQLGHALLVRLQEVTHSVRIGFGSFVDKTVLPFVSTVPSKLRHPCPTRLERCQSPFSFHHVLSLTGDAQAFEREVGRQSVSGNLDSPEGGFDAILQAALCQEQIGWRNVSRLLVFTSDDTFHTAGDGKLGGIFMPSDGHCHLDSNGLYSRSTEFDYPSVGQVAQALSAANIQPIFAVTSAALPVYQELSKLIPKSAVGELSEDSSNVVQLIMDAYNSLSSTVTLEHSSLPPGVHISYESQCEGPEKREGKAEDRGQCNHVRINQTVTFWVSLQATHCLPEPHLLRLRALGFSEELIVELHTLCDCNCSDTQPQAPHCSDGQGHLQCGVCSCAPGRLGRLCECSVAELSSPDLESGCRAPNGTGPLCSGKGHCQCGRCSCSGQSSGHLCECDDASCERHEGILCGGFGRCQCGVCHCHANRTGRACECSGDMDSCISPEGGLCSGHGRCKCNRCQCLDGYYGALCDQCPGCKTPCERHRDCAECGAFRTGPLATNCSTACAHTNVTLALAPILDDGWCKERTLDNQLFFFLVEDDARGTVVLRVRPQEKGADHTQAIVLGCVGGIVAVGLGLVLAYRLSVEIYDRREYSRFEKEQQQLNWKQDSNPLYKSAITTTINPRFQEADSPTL
# Method: Fresh CD4+/CD45RO+ memory T cells were isolated from human peripheral blood mononuclear cell (PBMC) donors by Aragen Bioscience Inc. (Morgan Hill, Calif.). The assay plate was prepared using IgG Fc capture antibody (donkey anti human) immobilized at 500 ng/well in 50 mM sodium bicarbonate buffer, pH 9.5, ON, 4C onto a Greiner Fluotrac plate (100 ul per well). The plate was rinsed two time with Blocking Buffer (25 mM Tris HCl, pH7.5, 150 mM NaCl, 1.5% BSA, 0.05% Tween), and blocked with Blocking Buffer for 2 hours at 37 C or 5 hours at RT using 200 ul per well. The Blocking Buffer was removed and either MAdCAM-1 or VCAM-1 at 400 ng/well in Blocking Buffer was added and the plate incubated overnight at 4C (100 ul per well). The plate was washed two times with Blocking Buffer, and rinsed once with 200 ul Binding Media (DMEM phenol red free, 10 mM HEPES, 1×Na pyruvate, 1× Glutamine, and supplemented with 1 mM MnCl2 prior to use). To prepare cells, approximately 25 million CD4+/CD45RO+ memory T cells were counted by trypan blue exclusion using a haemocytometer to determine viability and cell count. The cells were transferred to a 50 ml conical tube, and centrifuged at 1200 rpm for 10 minute. The media was aspirated and the cell pellet resuspended in 15 ml Binding Media. The cells were centrifuged again and resuspended in the appropriate amount of Binding Media to be used for assays (50 ul of cells per well at 2× the final density). To each well, and equal volume (50 ul) of test compound was added and the plate was incubated for 1.5 hours at 37 C, 5% CO2. Each well was rinsed 3× with 150 ul per well of Binding Media. […] The plate was incubated at 37 C, 5% CO2, for 45 minutes. The plate was protected from light by using black adhesive seals. Fluorescence intensity was measured using a Molecular Devices Gemini EM Fluorescent Plate Reader (Ex 485/Em530, Bottom Read, Reading Sensitivity=20). IC50 curves are generated using Graph Pad Prism and the curves analyzed using analyzed using a non-linear regression (four parameters) algorithm. The log (concentration) versus RFU (Ex485/Em530) was plotted to determine IC50 values.
# [2] = target: T1, α4β7; assay: α4β7-MAdCAM Cell Adhesion Assay (RPMI 8866 human cells); assay type: cell-based; design: host or cells: RPMI 8866 human B lymphoblastoid cells; settings: Table 3-B, Potency (α4β7); range classes; read-out: α4β7 cell (Hu) IC50
# Summary of the method: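 Adhesion read-out: MTT absorbance at 570 nm minus no-cell wells, after three washes. Plates coated with rh MAdCAM-1/Fc received peptide dilutions plus 200,000 RPMI 8866 cells in Mn2+ (1 mM)-supplemented DMEM, 0.1% BSA, HEPES pH 7, incubated 30-45 min, 37 °C.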
# [3] = target: T2, α4β1 (Homo sapiens, UniProt P05556+P13612, DEL729-798); assay: α4β1-VCAM Competition ELISA; assay type: binding; settings: Table 3-B, Selectivity (α4β1); range classes; read-out: α4β1 ELISA IC50
# T2 construct: purchased R&D Systems 5668-A4
# Method: A Nunc MaxiSorp plate was coated with rh VCAM-1/CD106 Fc chimera (R&D #862-VC) at 400 ng/well in 50 ul per well in 1×PBS and incubated overnight at 4° C. The solution was removed by shaking and then blocked with 250 ul of 1% BSA in 1×PBS per well. The wells were then incubated at room temperature for 1 hr with shaking. Each well was then washed once with wash buffer (50 mM Tris-HCl pH7.6, 100 mM NaCL, 1 mM MnCl2 or MgCl2, 0.05% Tween-20). 25 ul of serial dilutions of peptides starting at 200 μM in assay buffer (Assay buffer: 50 mM Tris-HCl pH7.6, 100 mM NaCl, 1 mM MnCl2 or MgCl2, 0.05% Tween-20) was added to each well. Additionally, 25 ul of α4β1 (R&D Systems #5668-A4) was added to each well at a fixed concentration of 120 nM. The final peptide and α4β1 concentrations were 100 μM and 60 nM, respectively. The plates were then incubated at 37° C. for 2 hr. The solution was then removed by shaking, and each well was washed three times with wash buffer. 50 ul of 9F10 antibody at 4 ug/ml (purified mouse anti-human CD49d, BD Bioscience Cat#555502) was then added to each well, and the plate was incubated at room temperature for 1 hr with shaking. The solution was again removed by shaking, and each well was washed three times with wash buffer. 50 ul of peroxidase-conjugated AffiniPure Goat anti-mouse IgG (Jackson immune research cat #115-035-003) diluted in 1:5000 in assay buffer was added to each well. The plate was incubated at room temperature for 30 min with shaking. Each well was then washed 3 times with wash buffer. 100 ul of TMB was then added to each well and closely observe during developing time. The reaction was stepped with 2N H2SO4 and absorbance was read at 450 nm.
# [4] = target: T3, α4β7 (Mus musculus, UniProt P26011+Q00651); assay: α4β7 Cell Adhesion Assay (Mouse), TK1 cells; assay type: cell-based; settings: Table 3-B, Potency (α4β7); range classes; read-out: α4β7 cell(MU) IC50
# T3 construct: host or cells: TK1 mouse T cells
# T3 sequence (Q00651 34-1039 limits assumed): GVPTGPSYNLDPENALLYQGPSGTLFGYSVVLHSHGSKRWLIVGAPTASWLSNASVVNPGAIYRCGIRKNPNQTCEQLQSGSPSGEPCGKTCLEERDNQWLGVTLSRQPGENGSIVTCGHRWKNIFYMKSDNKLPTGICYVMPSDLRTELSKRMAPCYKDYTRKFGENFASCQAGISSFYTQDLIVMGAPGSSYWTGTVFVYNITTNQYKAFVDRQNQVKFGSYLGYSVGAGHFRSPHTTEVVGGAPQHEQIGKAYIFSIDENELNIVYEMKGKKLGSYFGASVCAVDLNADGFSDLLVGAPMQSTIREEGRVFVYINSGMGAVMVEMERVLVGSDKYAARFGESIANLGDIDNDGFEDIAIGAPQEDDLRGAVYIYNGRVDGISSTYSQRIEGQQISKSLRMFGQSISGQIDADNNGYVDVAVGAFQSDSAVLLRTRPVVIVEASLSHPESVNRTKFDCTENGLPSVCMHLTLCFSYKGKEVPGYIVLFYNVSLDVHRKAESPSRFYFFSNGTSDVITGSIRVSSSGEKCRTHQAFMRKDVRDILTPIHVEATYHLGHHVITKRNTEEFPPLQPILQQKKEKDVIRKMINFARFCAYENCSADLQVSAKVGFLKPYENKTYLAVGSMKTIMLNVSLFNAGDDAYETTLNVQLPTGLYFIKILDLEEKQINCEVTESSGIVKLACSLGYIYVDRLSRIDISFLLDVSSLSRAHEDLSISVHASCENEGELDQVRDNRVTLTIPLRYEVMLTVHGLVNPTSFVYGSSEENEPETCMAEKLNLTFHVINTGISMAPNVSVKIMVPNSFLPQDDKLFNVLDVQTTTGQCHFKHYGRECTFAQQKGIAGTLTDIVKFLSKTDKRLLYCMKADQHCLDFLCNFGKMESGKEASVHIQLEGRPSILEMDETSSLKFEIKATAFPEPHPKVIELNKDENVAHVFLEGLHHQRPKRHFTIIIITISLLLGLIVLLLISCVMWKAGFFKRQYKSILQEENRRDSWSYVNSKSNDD
# T3 sequence (P26011 20-806): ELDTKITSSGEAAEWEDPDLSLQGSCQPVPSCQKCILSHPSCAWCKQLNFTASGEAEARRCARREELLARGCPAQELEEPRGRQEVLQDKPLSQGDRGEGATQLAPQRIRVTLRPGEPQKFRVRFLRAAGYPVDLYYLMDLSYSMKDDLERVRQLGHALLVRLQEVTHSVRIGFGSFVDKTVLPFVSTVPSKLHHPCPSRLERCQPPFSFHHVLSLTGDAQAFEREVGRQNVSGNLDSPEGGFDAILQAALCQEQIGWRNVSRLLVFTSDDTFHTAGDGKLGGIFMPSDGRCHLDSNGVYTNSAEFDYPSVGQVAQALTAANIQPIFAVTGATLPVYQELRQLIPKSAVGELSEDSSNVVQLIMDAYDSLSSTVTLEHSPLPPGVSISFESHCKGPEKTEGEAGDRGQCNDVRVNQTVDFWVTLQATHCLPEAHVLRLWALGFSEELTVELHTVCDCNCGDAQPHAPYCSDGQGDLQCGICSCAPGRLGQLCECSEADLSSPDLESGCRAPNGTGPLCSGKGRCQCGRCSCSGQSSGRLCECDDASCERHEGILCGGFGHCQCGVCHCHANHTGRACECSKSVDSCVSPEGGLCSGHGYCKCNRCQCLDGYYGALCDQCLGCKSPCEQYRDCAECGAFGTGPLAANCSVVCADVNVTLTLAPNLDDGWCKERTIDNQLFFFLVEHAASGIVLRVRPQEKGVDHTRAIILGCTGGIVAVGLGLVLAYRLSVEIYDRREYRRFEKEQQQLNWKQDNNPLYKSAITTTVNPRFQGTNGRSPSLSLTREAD
# Method: TK1 cells (ATCC # ATCC-CRL-2396) were cultured in RPMI 1640 with 2 mM L-glutamine adjusted to contain 1.5 g/L sodium bicarbonate, 4.5 g/L glucose, 10 mM HEPES, and 1.0 mM sodium pyruvate (ATCC#30-2001) and supplemented with 0.1 mM non-essential amino acids, (ATCC #30-2116) 0.05 mM 2-mercaptoethanol (Invitrogen #21985) and 10% serum (Fetal Bovine Serum, Invitrogen #16140-071), and Penicillin-Streptomycin (Invitrogen #15140-122) at 100 units of penicillin and 100 μg of streptomycin per ml. The cells were washed two times in DMEM medium (ATCC #30-2002) supplemented with 0.1% BSA, 10 mM HEPES pH 7 and 1 mM MnCl2. The cells were re-suspended in supplemented DMEM medium at a density of 4×10^6 cells/ml.
# A Nunc MaxiSorp plate was coated with Recombinant human MAdCAM-1 Fc Chimera (R&D #6065-MC) at 200 ng per well in 100 μl per well in 1×PBS and incubated at 4° C. overnight. The solution was then removed by shaking, blocked with 250 ul per well PBS containing 1% BSA, and incubated at 37° C. for 1 hr. The solution was removed by shaking. DATK 32 (anti-mouse α4β7) and peptides were diluted by serial dilution in a final volume of 50 ul per well (2× concentration). To each well, 50 ul of cells (200,000 cells) are added and the plate is incubated at 37° C., 5% CO2 for 30-45 min to allow cell adhesion. The plate was manually washed three times with supplemented DMEM, 100 ul per wash. After the final wash, 100 ul/well of supplemented DMEM and […] of MTT reagent (ATTC cat#30-1010K) was added to each well. Wells were incubated at 37° C. with 5% CO2 for 2-3 hrs until purple precipitate was visible. 100 μl of Detergent Reagent (ATTC cat#30-1010K) was added to each well. The plate was then wrapped with Para film to prevent evaporation, and left overnight at room temperature in the dark. The plate was shaken for 5 min and the absorbance at 570 nm was measured. To calculate the dose response, the absorbance value of control wells not containing cells was subtracted from each test well.
# [5] = test system: cell types in human whole blood; assay: FACS binding specificity in human whole blood; assay type: cell-based; settings: 1 nM, 1 mM MnCl2
# Method: To further evaluate the selectivity of Peptide X in human blood, the fluorescent dye Alexa 647 was conjugated to Peptide X at the same position used for attaching biotin. […] Heparinized human whole blood was supplemented with 1 mM MnCl2, and stained with the Peptide X-Alexa 647 conjugate or biotinylated vedolizumab for 1 hour at room temperature. The samples were fixed (red blood cells lysed) and washed. The vedolizumab samples were stained separately with streptavidin Alexa 647 for stain for 30 minutes at room temperature. FACS analysis was used to assess binding of the peptide or vedolizumab to a broad panel of cell types including NK cells, basophils, monocytes, eosinophils, neutrophils, CD4 naïve T cells, CD4 memory T cells, CD8 naïve T cells, CD8 memory T cells, and B cells. […] The binding specificity for vedolizmab shown in Table 7 is also very similar to that reported in the literature (Soler et al, JPET 330:864-875, 2009).
Molecule,IC50 [2] [µM],IC50 [3] [µM],IC50 [4] [µM],other results
"CC(=O)N[C@@H]1C(=O)N(C)[C@@H](CCCNC(=N)N)C(=O)N[C@@H](CO)C(=O)N[C@@H](CC(=O)O)C(=O)N[C@@H]([C@@H](C)O)C(=O)N[C@@H](CC(C)C)C(=O)N[C@H](C(=O)N[C@@H](Cc2ccc(C(C)(C)C)cc2)C(=O)N[C@@H](CCC(=O)O)CC(=O)N[C@H](CCCCNC(=O)COCC(=O)NCCCC[C@@H](NC(=O)C[C@H](CCC(=O)O)NC(=O)[C@H](Cc2ccc(C(C)(C)C)cc2)NC(=O)[C@H]2NC(=O)[C@H](CC(C)C)NC(=O)[C@H]([C@@H](C)O)NC(=O)[C@H](CC(=O)O)NC(=O)[C@H](CO)NC(=O)[C@H](CCCNC(=N)N)N(C)C(=O)[C@@H](NC(C)=O)C(C)(C)SSC2(C)C)C(=O)O)C(=O)O)C(C)(C)SSC1(C)C [compound 168] (I: Ac-[Pen][NMeR]SDTL[Pen][Phe(4-tBu)][β3hE][dK]-OH / II: Ac-[Pen][NMeR]SDTL[Pen][Phe(4-tBu)][β3hE][dK]-OH; disulfide I:1-I:7, II:1-II:7; linker I:10-II:10 via Diglycolyl)",< 0.01,–,–,IC50 [1]: < 0.01 µM
CC(=O)N[C@@H]1C(=O)N(C)[C@@H](CCCNC(=N)N)C(=O)N[C@@H](CO)C(=O)N[C@@H](CC(=O)O)C(=O)N[C@@H]([C@@H](C)O)C(=O)N[C@@H](CC(C)C)C(=O)N[C@H](C(=O)N[C@@H](Cc2ccc3ccccc3c2)C(=O)N[C@@H](CCC(=O)O)CC(N)=O)C(C)(C)SSC1(C)C [compound 155] (Ac-[Pen][NMeR]SDTL[Pen][2Nal][β3hE]-NH2; disulfide 1-7),0.025 to 0.05,1 to 10,0.025 to 0.05,–
vedolizumab [reference compound],–,–,–,"Percent positive staining, Basophils [5]: 86%; Percent positive staining, CD4 memory T cells [5]: 22%; Percent positive staining, CD4 naïve T cells [5]: 55%; Percent positive staining, CD8 memory T cells [5]: 36%; Percent positive staining, CD8 naïve T cells [5]: 53%; Percent positive staining, CD19+ B cells [5]: 85%; Percent positive staining, Eosinophils [5]: 91%; Percent positive staining, Monocytes [5]: 7%; Percent positive staining, NK cells CD16+ 56+ [5]: 42%; Percent positive staining, Neutrophils [5]: 0.45%"
"COC(=O)CC[C@H](NC(=O)[C@H](Cc1c[nH]c2ccccc12)NC(=O)[C@H]1NC(=O)[C@H](CC(C)C)NC(=O)[C@H]([C@@H](C)O)NC(=O)[C@H](CC(=O)O)NC(=O)[C@H](CO)NC(=O)[C@H](CCCNC(=N)N)N(C)C(=O)[C@@H](NC(C)=O)C(C)(C)SSC1(C)C)C(=O)N[C@H](CCCCNC(=O)COCC(=O)NCCCC[C@@H](NC(=O)[C@H](CCC(=O)OC)NC(=O)[C@H](Cc1c[nH]c2ccccc12)NC(=O)[C@H]1NC(=O)[C@H](CC(C)C)NC(=O)[C@H]([C@@H](C)O)NC(=O)[C@H](CC(=O)O)NC(=O)[C@H](CO)NC(=O)[C@H](CCCNC(=N)N)N(C)C(=O)[C@@H](NC(C)=O)C(C)(C)SSC1(C)C)C(N)=O)C(N)=O [compound 86] (I: Ac-[Pen][NMeR]SDTL[Pen]WE(OMe)[dK]-NH2 / II: Ac-[Pen][NMeR]SDTL[Pen]WE(OMe)[dK]-NH2; disulfide I:1-I:7, II:1-II:7; linker I:10-II:10 via Diglycolyl)",< 0.01,–,< 0.01,–
CC(=O)N[C@@H]1C(=O)N(C)[C@@H](CCCNC(=N)N)C(=O)N[C@@H](CO)C(=O)N[C@@H](CC(=O)O)C(=O)N[C@@H]([C@@H](C)O)C(=O)N[C@@H](CC(C)C)C(=O)N[C@H](C(=O)N2Cc3ccccc3C[C@H]2C(=O)N[C@@H](CCC(=O)O)CC(N)=O)C(C)(C)SSC1(C)C [compound 154] (Ac-[Pen][NMeR]SDTL[Pen][Tic][β3hE]-NH2; disulfide 1-7),0.1 to 0.5,1 to 10,1 to 10,–
CC(=O)N[C@@H]1C(=O)N(C)[C@@H](CCCNC(=N)N)C(=O)N[C@@H](CO)C(=O)N[C@@H](CC(=O)O)C(=O)N[C@@H]([C@@H](C)O)C(=O)N[C@@H](CC(C)C)C(=O)N[C@H](C(=O)N[C@@H](Cc2c[nH]c3ccccc23)C(=O)N[C@@H](CCC(=O)O)CC(=O)O)C(C)(C)SSC1(C)C [compound 146] (Ac-[Pen][NMeR]SDTL[Pen]W[β3hE]-OH; disulfide 1-7),0.05 to 0.1,1 to 10,0.05 to 0.1,–
